# Entries after “also recorded” stand apart in the source; their conditions may differ. Read-outs that look alike come from different tables or passages of the source.
# What was measured:
# [1] = tested on: SARS-CoV-2; assay: microbe, parasite or virus in culture; type: cell-based
# [2] = in vitro
# [3] = tested on: A549 and Vero E6 cells
# [4] = molecular target: T1, SARS-CoV-2 3CLpro (Severe acute respiratory syndrome coronavirus 2, UniProt P0DTD1); assay: biochemical; type: biochemical; details: for inhibitory activity in library screen: compound concentration of 100 μM
# [5] = molecular target: T1, SARS-CoV-2 3CLpro; assay: Surface plasmon resonance binding to immobilized 3CLpro; details: 0.164-100 μM, 25° C.
# [6] = molecular target: T1, SARS-CoV-2 3CLpro; assay: Microscale thermophoresis ligand binding; details: 10 nM labeled 3CLpro; read-out: KD (MST)
# Text: Monolith NT.115 Microscale Thermophoresis (MST) instrument (NanoTemper Technologies) was used for this assay. Monolith protein labeling kit RED-NHS was purchased from NanoTemper Technologies. Briefly, 3CLpro protein was labeled using RED-NHS labelling kit (NanoTemper) following the manufacturer's instructions. […] The assay was read in 20% excitation power and medium MST power.
# [7] = molecular target: T1, SARS-CoV-2 3CLpro; assay: Inhibition of cleavage of TriPro substrate protein, SDS-PAGE; type: biochemical; details: 0.8 μM 3CLpro
# [8] = molecular target: T1, SARS-CoV-2 3CLpro; assay: Enzyme kinetics, Lineweaver-Burk plots; type: biochemical; details: for Inhibition Type: Michaelis-Menten kinetics; for effect on Vmax of 3CLpro: compared to the DMSO control, 5 μM or 10 μM inhibitor
# [9] = tested on: SARS-CoV-2; assay: Clinical examples 1-3, treatment of COVID-19 / SARS-CoV-2 positive subjects; type: in vivo
# Text: Example 1: The following example describes treatment strategies for COVID-19 involving oral administration of an antiviral composition.
# A physician diagnoses a patient with COVID-19. The patient is experiencing mild symptoms. […] The patient is to take the tablet once a day for one week. The patient is highly responsive and their symptoms go away after 2 days.
# Example 2: The following example describes treatment strategies for intravenous administration of an antiviral composition.
# A diabetic patient is hospitalized with severe COVID-19. […] The medication is added to an IV solution and delivered intravenously, twice a day for three days. The patient is highly responsive and experiences a reduction in their symptoms during the initial treatment period.
# A subject tests positive for SARS-CoV-2 but is asymptomatic. […] The subject sprays the inside of their nose once a day for 5 days. The subject remains asymptomatic.
# [10] = molecular target: T1, SARS-CoV-2 3CLpro; details: at 50 μM concentration; cited from earlier work
# [11] = tested on: SARS-CoV; details: cited from earlier work
# [12] = molecular target: SARS-CoV 3CLpro (Severe acute respiratory syndrome coronavirus, UniProt P0C6X7); details: cited from earlier work
# [13] = Severe acute respiratory syndrome coronavirus 2, 48 h
# [14] = FRET peptide substrate, 200 nM 3CLpro, read-out: SARS-CoV-2 3CLpro IC50
# [15] = Severe acute respiratory syndrome coronavirus 2, Table 2 and text, SARS-CoV-2 viral replication, cell-based antiviral assay
smiles,measurement,setting,value
O=C(Nc1ccc(F)c(F)c1)c1cc(Cl)ccc1O [JMX0321],EC50,[1]; [13],1.19 µM
same,CC50 at 48 h,[2],3.76 µM
"O=C(Nc1cc(C(F)(F)F)cc(C(F)(F)F)c1)c1cccc([N+](=O)[O-])c1O [JMX0330, N-(3,5-Bis(trifluoromethyl)phenyl)-2-hydroxy-3-nitrobenzamide]",EC50 value (strong inhibition of SARS-CoV-2 virus),[1],sub-micromolar range
same,EC50,[1]; [13],0.498 µM
same,CC50,"[3]; Table 1, cell line not given",10.2 µM
"CC(C)(C)OC(=O)NCCOc1ccc(Cl)cc1C(=O)NCC(=O)Nc1ccc([N+](=O)[O-])cc1Cl [JMX0301, tert-Butyl(2-(4-chloro-2-((2-((2-chloro-4-nitrophenyl)amino)-2-oxoethyl)carbamoyl)phenoxy)ethyl)carbamate]",EC50 (μM),"[1]; Table 2, SARS-CoV-2 viral replication, cell-based antiviral assay",No Dose
same,IC50,[4]; [14],4.5 µM
same,inhibitory activity in library screen,[4],prominent inhibitory activity
same,"KD (SPR, steady-state affinity model)",[5],did not show binding
same,Kd,[6],34 µM
same,inhibition of cleavage of the TriPro substrate protein,[7],inhibited the cleavage of the TriPro substrate protein in a dose dependent manner; also recorded: inhibit the digestion of protein substrates in a dose dependent manner
same,Inhibition Type,[8],non-competitive inhibition mechanism
same,effect on Vmax of 3CLpro,[8],reduced the Vmax values
same,clinical outcome,"[9]; Example 2: 100 mg with remdesivir 100 mg intravenously twice a day for three days, then 50 mg tablet, severe COVID-19",completely recovers
same,side effects,"[9]; Example 2: intravenous with remdesivir, then tablet",No side effects are reported
O=C(Nc1cc(F)cc(C(F)(F)F)c1)c1cc(Cl)ccc1O [JMX0312],EC50,[1]; [13],1.13 µM
same,CC50 at 48 h,[2],1.97 µM
CC(C)[C@H](NC(=O)c1cc(Cl)ccc1O)C(=O)Nc1cc(C(F)(F)F)cc(C(F)(F)F)c1 [JMX0679],EC50,[1]; [13],2.51 µM
same,CC50 at 48 h,[2],7.14 µM
"CC(C)(C)NC(=O)N[C@H](C(=O)N1C[C@H]2[C@@H]([C@H]1C(=O)NC(CC1CCC1)C(=O)C(N)=O)C2(C)C)C(C)(C)C (some centres unmarked) [Boceprevir, boceprevir, reference compound]",EC50,[1]; [15],15.6 µM
O=C(Nc1ccc(C(F)(F)F)cc1Cl)c1cc(Cl)ccc1O [JMX0308],EC50 value (strong inhibition of SARS-CoV-2 virus),[1],sub-micromolar range
same,EC50,[1]; [13],0.806 µM
"Cl.NCCOc1ccc(Cl)cc1C(=O)NCC(=O)Nc1ccc([N+](=O)[O-])cc1Cl [JMX0286, 2-(2-Aminoethoxy)-5-chloro-N-(2-((2-chloro-4-nitrophenyl)amino)-2-oxoethyl)benzamide hydrochloride]",EC50,[1]; [13],2.25 µM
same,IC50,[4]; [14],4.8 µM
same,inhibitory activity in library screen,[4],prominent inhibitory activity
same,Kd,"[5]; read-out: KD (SPR, steady-state affinity model)",9.8 µM
same,inhibition of cleavage of the TriPro substrate protein,[7]; hydrochloride,inhibited the cleavage of the TriPro substrate protein in a dose dependent manner; also recorded: inhibit the digestion of protein substrates in a dose dependent manner
same,Inhibition Type,[8]; hydrochloride,non-competitive inhibition mechanism
same,effect on Vmax of 3CLpro,[8],reduced the Vmax values
same,side effects,[9]; Example 1: oral tablet 50 mg once a day for one week,No side effects are reported
same,clinical outcome,"[9]; Example 1: oral tablet 50 mg once a day for one week, mild COVID-19",completely recovers
same,CC50,"[3]; Table 1, cell line not given",3.78 µM
O=C(Nc1cc(F)cc(C(F)(F)F)c1)c1ccc(Cl)cc1O [JMX0887],EC50 value (strong inhibition of SARS-CoV-2 virus),[1],sub-micromolar range
same,EC50,[1]; [13],0.92 µM
same,CC50 at 48 h,[2],4.18 µM
O=C(NC(Cc1ccccc1)C(=O)Nc1ccc([N+](=O)[O-])cc1Cl)c1cc(Cl)ccc1O (centres unmarked) [JMX0285],EC50,[1]; [13],3.03 µM
same,CC50 at 48 h,[2],6.13 µM
CC(C)C[C@H](NC(=O)c1cc(Cl)ccc1O)C(=O)Nc1ccc([N+](=O)[O-])cc1Cl [JMX0671],EC50,[1]; [13],1.56 µM
same,CC50 at 48 h,[2],8.03 µM
CC1(Nc2ccc(NC(=O)c3cc(Cl)ccc3O)c(Cl)c2)CCCC1 [JMX0510-2],EC50,[1],4.88 µM
same,CC50,[3],11.5 µM
O=C(Nc1ccc([N+](=O)[O-])c(Cl)c1)c1cc(Cl)ccc1O [JMX0941],EC50,[1]; [13],1.75 µM
same,EC50,[1]; [15],1.7 µM
same,inhibitory activity in library screen,[4],prominent inhibitory activity
same,inhibition of cleavage of the TriPro substrate protein,[7],inhibited the cleavage of the TriPro substrate protein in a dose dependent manner; also recorded: inhibit the digestion of protein substrates in a dose dependent manner
same,Inhibition Type,[8],non-competitive inhibition mechanism
same,effect on Vmax of 3CLpro,[8],reduced the Vmax values
same,side effects,[9]; Example 3: intranasal spray 10 mg once a day for 5 days,No side effects are reported
same,SARS-CoV-2 test on the 6th day,"[9]; Example 3: intranasal spray 10 mg once a day for 5 days, asymptomatic subject",negative for SARS-CoV-2
CCC(C)[C@H](NC(=O)c1cc(Cl)ccc1O)C(=O)Nc1ccc([N+](=O)[O-])cc1Cl (some centres unmarked) [JMX0673],EC50,[1]; [13],1.74 µM
same,CC50 at 48 h,[2],5.2 µM
O=C(Nc1ccc([N+](=O)[O-])cc1)c1cc(Cl)ccc1O [JMX0895],EC50 value (strong inhibition of SARS-CoV-2 virus),[1],sub-micromolar range
same,EC50,[1]; [13],0.665 µM
"O=C(Nc1ccc(C(F)(F)F)cc1Cl)c1cccc([N+](=O)[O-])c1O [JMX0310, N-(2-Chloro-4-(trifluoromethyl)phenyl)-2-hydroxy-3-nitrobenzamide]",EC50,[1]; [13],2.41 µM
same,CC50,"[3]; Table 1, cell line not given",10.1 µM
"O=C(Nc1cc(F)cc(C(F)(F)F)c1)c1cccc([N+](=O)[O-])c1O [JMX0317, N-(3-Fluoro-5-(trifluoromethyl)phenyl)-2-hydroxy-3-nitrobenzamide]",EC50,[1]; [13],4.03 µM
same,CC50,"[3]; Table 1, cell line not given",11.7 µM
CC(C)[C@H](NC(=O)c1cc(Cl)ccc1O)C(=O)Nc1ccc(F)c(F)c1 [JMX0681],EC50,[1]; [13],9.75 µM
same,CC50 at 48 h,[2],> 10 µM
"O=C(Nc1ccc([N+](=O)[O-])cc1Cl)c1cc(Cl)ccc1O [Niclosamide, niclosamide]",IC50,[4],> 50 µM
same,inhibition of the SARS-CoV-2 3CLpro,[10],does not inhibit
same,EC50,"[11]; Vero E6 cells, read-out: EC50, SARS-CoV replication",< 0.1 µM
same,concentration suppressing the cytopathic effect (CPE) of SARS-CoV,[11]; as low as,1 µM
same,inhibitory activity against SARS-CoV 3CLpro,[12],no obvious inhibitory activity
CC(C)[C@H](NC(=O)c1cc(Cl)ccc1O)C(=O)Nc1ccc(C(F)(F)F)cc1Cl [JMX0672],EC50,[1]; [13],1.92 µM
same,CC50 at 48 h,[2],8.34 µM
CC(C)[C@H](NC(=O)c1cc(Cl)ccc1O)C(=O)Nc1ccc([N+](=O)[O-])cc1Cl [JMX0281],EC50,[1]; [13],2.08 µM
same,CC50 at 48 h,[2],8.32 µM
CC(C)[C@H](NC(=O)c1cc(Cl)ccc1O)C(=O)Nc1cc(F)cc(C(F)(F)F)c1 [JMX0680],EC50,[1]; [13],4.57 µM
same,CC50 at 48 h,[2],10.1 µM
C[C@H](NC(=O)c1cc(Cl)ccc1O)C(=O)Nc1ccc([N+](=O)[O-])cc1Cl [JMX0674],EC50,[1]; [13],9.75 µM
same,CC50 at 48 h,[2],> 10 µM
O=C(Nc1ccc([N+](=O)[O-])cc1Cl)c1cccc([N+](=O)[O-])c1O [JMX0207],EC50,[1]; [13],1.22 µM
same,CC50 at 48 h,[2],13.2 µM
O=C(Nc1cc(C(F)(F)F)cc(C(F)(F)F)c1)c1cc(Cl)ccc1O [JMX0325],EC50 value (strong inhibition of SARS-CoV-2 virus),[1],sub-micromolar range
same,EC50,[1]; [13],0.123 µM
same,CC50 at 48 h,[2],1.81 µM

# Source: patent US20250186374A1 (priority 2022, published 2025)
